The supplement of paper PMC10307832

compound: CC1=C(N=C(N=C1N)[C@H](CC(=O)N)NC[C@@H](C(=O)N)N)C(=O)N[C@@H]([C@H](C2=CN=CN2)OC3C(C(C(C(O3)CO)O)O)OC4C(C(C(C(O4)CO)O)OC(=O)N)O)C(=O)N[C@H](C)[C@H]([C@H](C)C(=O)N[C@@H]([C@@H](C)O)C(=O)NCCC5=NC(=CS5)C6=NC(=CS6)C(=O)NCCC[S+](C)C)O [Bleomycin] + Cc1cc(Nc2cc(N3CCN(C)CC3)nc(Sc3ccc(NC(=O)C4CC4)cc3)n2)n[nH]1 [Tozasertib] (partner 0.1 µM); test: relative viability (nuclei count vs DMSO), 5 days (fraction); higher = more cells survive; conditions: first compound 1 µM; main component drawn
In short: (§1)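 A single step with final 0.05% Triton X-100, 1% formaldehyde and 1 ug/ml Hoechst fixed the cells and stained nuclei 5 days after treatment. Lung cancer cell lines in 1536-well plates had been treated by pin tool the day after seeding with one drug alone or a fixed anchor-drug dose plus five library-drug doses (not always all listed) in √10 steps, and nuclei were counted on 4× images. Relative viability is the ratio of nuclei in treated wells to nuclei in vehicle wells, taken as the median of duplicate plates.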

NCI-H23 was tested, and the relative viability was 0.135.

compound: CC1=C(N=C(N=C1N)[C@H](CC(=O)N)NC[C@@H](C(=O)N)N)C(=O)N[C@@H]([C@H](C2=CN=CN2)OC3C(C(C(C(O3)CO)O)O)OC4C(C(C(C(O4)CO)O)OC(=O)N)O)C(=O)N[C@H](C)[C@H]([C@H](C)C(=O)N[C@@H]([C@@H](C)O)C(=O)NCCC5=NC(=CS5)C6=NC(=CS6)C(=O)NCCC[S+](C)C)O [Bleomycin] + NC(=O)Nc1cc(-c2cccc(F)c2)sc1C(=O)N[C@H]1CCCNC1 [AZD7762] (partner 0.2 µM); test: as above; conditions: first compound 0.01 µM; main component drawn
In short: as §1

First: LK-2
Second: NCI-H2126
The relative viability of the first is lower: 0.26 for the first, 0.932 for the second.

Compared with H3255, LOU-NH91 is lower in relative viability: 0.905 for the first, 0.715 for the second.

Compared with NCI-H2170, NCI-H3122 is higher in relative viability: 0.781 for the first, 0.972 for the second.

First: HOP-62
Second: LU99A
The relative viability of the first is higher: 0.325 for the first, 0.298 for the second.

Going from BEN to HARA, the relative viability falls from 0.735 to 0.281.

First: HCC-78
Second: NCI-H441
The relative viability of the first is lower: 0.607 for the first, 1.05 for the second.

Going from LCLC-97TM1 to A-427, the relative viability rises from 0.135 to 0.7.

Compared with NCI-H460, NCI-H727 is higher in relative viability: 0.409 for the first, 0.683 for the second.

Going from NCI-H1734 to NCI-H2405, the relative viability rises from 0.485 to 0.668.

Compared with NCI-H1395, 201T is higher in relative viability: 0.371 for the first, 0.487 for the second.

Going from NCI-H1915 to HCC-827, the relative viability falls from 0.53 to 0.195.

First: LXF-289
Second: NCI-H2347
The relative viability of the first is higher: 1.01 for the first, 0.727 for the second.

First: NCI-H650
Second: CAL-12T
The relative viability of the first is higher: 0.949 for the first, 0.497 for the second.

First: NCI-H1651
Second: EPLC-272H
The relative viability of the first is higher: 0.484 for the first, 0.208 for the second.

With NCI-H23 the relative viability was 0.259.

same assay, conditions: first compound 0.03162 µM; main component drawn

Going from LK-2 to NCI-H2126, the relative viability rises from 0.271 to 0.963.

Compared with H3255, LOU-NH91 is lower in relative viability: 0.819 for the first, 0.667 for the second.

First: NCI-H2170
Second: NCI-H3122
The relative viability of the first is lower: 0.63 for the first, 0.991 for the second.

Going from HOP-62 to LU99A, the relative viability falls from 0.292 to 0.261.

Going from BEN to HARA, the relative viability falls from 0.736 to 0.299.

Going from HCC-78 to NCI-H441, the relative viability rises from 0.683 to 0.977.

Going from LCLC-97TM1 to A-427, the relative viability rises from 0.141 to 0.748.

First: NCI-H460
Second: NCI-H727
The relative viability of the first is lower: 0.475 for the first, 0.574 for the second.

First: NCI-H1734
Second: NCI-H2405
The relative viability of the first is lower: 0.449 for the first, 0.683 for the second.

Going from NCI-H1395 to 201T, the relative viability rises from 0.401 to 0.543.

First: NCI-H1915
Second: LXF-289
The relative viability of the first is lower: 0.552 for the first, 1.07 for the second.

First: NCI-H2347
Second: NCI-H650
The relative viability of the first is lower: 0.858 for the first, 1.07 for the second.

Going from CAL-12T to NCI-H1651, the relative viability falls from 0.603 to 0.46.

Compared with EPLC-272H, NCI-H23 is higher in relative viability: 0.192 for the first, 0.241 for the second.

same assay, conditions: first compound 0.1 µM; main component drawn

First: LK-2
Second: NCI-H2126
The relative viability of the first is lower: 0.218 for the first, 1.15 for the second.

Compared with H3255, LOU-NH91 is lower in relative viability: 0.713 for the first, 0.576 for the second.

Compared with NCI-H2170, NCI-H3122 is higher in relative viability: 0.687 for the first, 0.966 for the second.

Compared with HOP-62, LU99A is lower in relative viability: 0.209 for the first, 0.203 for the second.

Going from BEN to HARA, the relative viability falls from 0.66 to 0.306.

Going from HCC-78 to NCI-H441, the relative viability rises from 0.599 to 1.17.

First: LCLC-97TM1
Second: A-427
The relative viability of the first is lower: 0.102 for the first, 0.542 for the second.

Going from NCI-H460 to NCI-H727, the relative viability rises from 0.269 to 0.451.

First: NCI-H1734
Second: NCI-H2405
The relative viability of the first is lower: 0.325 for the first, 0.632 for the second.

Going from NCI-H1395 to 201T, the relative viability rises from 0.352 to 0.438.

Compared with NCI-H1915, HCC-827 is lower in relative viability: 0.314 for the first, 0.199 for the second.

Going from LXF-289 to NCI-H2347, the relative viability falls from 0.928 to 0.714.

First: NCI-H650
Second: CAL-12T
The relative viability of the first is higher: 0.723 for the first, 0.436 for the second.

First: NCI-H1651
Second: EPLC-272H
The relative viability of the first is higher: 0.323 for the first, 0.145 for the second.

Cell Line NCI-H23 has a relative viability of 0.159.

same assay, conditions: first compound 0.3162 µM; main component drawn

Going from LK-2 to NCI-H2126, the relative viability rises from 0.134 to 0.894.

Going from H3255 to LOU-NH91, the relative viability falls from 0.55 to 0.421.

Going from NCI-H2170 to NCI-H3122, the relative viability falls from 0.467 to 0.379.

First: HOP-62
Second: LU99A
The relative viability of the first is higher: 0.16 for the first, 0.157 for the second.

Going from BEN to HARA, the relative viability falls from 0.534 to 0.226.

First: HCC-78
Second: NCI-H441
The relative viability of the first is lower: 0.528 for the first, 0.689 for the second.

Compared with LCLC-97TM1, A-427 is higher in relative viability: 0.0831 for the first, 0.353 for the second.

First: NCI-H460
Second: NCI-H727
The relative viability of the first is lower: 0.134 for the first, 0.33 for the second.

Going from NCI-H1734 to NCI-H2405, the relative viability rises from 0.21 to 0.531.

Going from NCI-H1395 to 201T, the relative viability rises from 0.392 to 0.422.

Going from NCI-H1915 to HCC-827, the relative viability falls from 0.221 to 0.148.

Compared with LXF-289, NCI-H2347 is lower in relative viability: 0.419 for the first, 0.325 for the second.

Going from NCI-H650 to CAL-12T, the relative viability falls from 0.515 to 0.289.

Going from NCI-H1651 to EPLC-272H, the relative viability falls from 0.266 to 0.114.

With NCI-H23 the relative viability was 0.121.

same assay, conditions: first compound 1 µM; main component drawn

First: LK-2
Second: NCI-H2126
The relative viability of the first is lower: 0.116 for the first, 0.922 for the second.

Compared with H3255, LOU-NH91 is lower in relative viability: 0.401 for the first, 0.369 for the second.

Compared with NCI-H2170, NCI-H3122 is lower in relative viability: 0.421 for the first, 0.33 for the second.

Going from HOP-62 to LU99A, the relative viability rises from 0.0932 to 0.121.

First: BEN
Second: HARA
The relative viability of the first is higher: 0.606 for the first, 0.244 for the second.

Compared with HCC-78, NCI-H441 is higher in relative viability: 0.493 for the first, 0.775 for the second.

Going from LCLC-97TM1 to A-427, the relative viability rises from 0.0741 to 0.241.

Compared with NCI-H460, NCI-H727 is higher in relative viability: 0.0663 for the first, 0.463 for the second.

First: NCI-H1734
Second: NCI-H2405
The relative viability of the first is lower: 0.151 for the first, 0.304 for the second.

Going from NCI-H1395 to 201T, the relative viability rises from 0.324 to 0.334.

Compared with NCI-H1915, HCC-827 is higher in relative viability: 0.137 for the first, 0.167 for the second.

Going from LXF-289 to NCI-H2347, the relative viability rises from 0.143 to 0.45.

Compared with NCI-H650, CAL-12T is lower in relative viability: 0.36 for the first, 0.24 for the second.

NCI-H1651 gave a relative viability of 0.219.
